Consider one molecule from patent US8394742B2, “Methods, compounds and compositions with genotype selective anticancer activity” (The Translation Genomics Research Institute, priority 2005, dated 2013).

Assay [1] concerns HS766T (DPC4 deleted). The assay can be described thus: MTS cell proliferation assay, HS766T cells. The assay is classed as cell-based. Conditions: Homo sapiens. As for the experimental part: (§1) The inhibition of cell proliferation by library compounds was evaluated using the CellTiter 96 Non-Radioactive Cell Proliferation Assay following the protocol recommended by the manufacturer (Promega, Madison Wis.). Briefly, 2000 cells were seeded in each well of 96-well plates in 90 μl growth medium. Cells were allowed to attach overnight followed by addition of 10 μl of serially diluted compounds into the plates. After incubation for 4 days at 37° C. in a humidified incubator, 20 μl of a 20:1 mixture of (3-(4,5-dimethylthiazol-2-yl)-5-(3-carboxymethoxyphenyl)-2-(4-sulfophenyl)-2H-tetrazolium, inner salt (MTS, 2 mg/ml) and an electron coupling reagent, phenazine methosulfate (PMS, 0.92 mg/ml), was added to each well and incubated for 3 hours at 37° C. Absorbance was then measured using the Wallace Victor microplate reader at 490 nm (PerkinElmer, Wellesley, Mass.). Data were expressed as the percentage of cell growth calculated from the absorbance corrected for background absorbance. The surviving fraction of cells was determined by dividing the mean absorbance values of the treated samples by the mean absorbance values of the DMSO control.
(§2) After generating the isogenic cell lines for the DPC4 gene, Applicants then carried out a screening process using the cell lines with the aim to identify compounds that selectively kill cells with deficient DPC4 function. […]
(Tetrazolium dyes change colour on reduction, which living cells bring about.)

For assay [2], the system named is BxPC-3-vector cells. Kind of assay: MTS based cell proliferation assay, BxPC-3-vector cells. On the set-up: species or system human. Conditions: BxPC-3-vector (BxPc3Vc, pMSCVneo empty vector), 4 days. As for the experimental part: as §1, §2
In assay [3] the test system is BxPC-3 cells. Kind of assay: Cell cycle distribution analysis (propidium iodide, flow cytometry). The class given is cell-based, human. Particulars: BxPC-3, 25 μM. The protocol:
Cells (5×10^5) were plated in a T-25 tissue culture flask 24 hours prior to the drug treatment. […] After the treatment, the cells were harvested by trypsinization and centrifugation and then stained with propidium iodide (Sigma) in a modified Krishan buffer (20) for 4 hours at 4° C. The PI stained samples were then analyzed with a FACScan flow cytometer (BD Immunocytometry systems, San Jose, Calif.). Histograms were analyzed for cell cycle compartments and the percentage of cells at each phase of the cell cycle was calculated using CellQuest (BD Immunocytometry systems) analysis software.
In general terms: In flow cytometry, cells or beads pass a laser one at a time.

Assay [4] relates to HPDE6-siDPC4 (HPDE6 cells with DPC4 expression stably suppressed by siRNA). Kind of assay: MTS cell proliferation assay, HPDE6-siDPC4 cells. The assay is classed as cell-based. Particulars: Homo sapiens. As for the experimental part:
At the initial screening, compounds are tested in the MTS assay (or other cell proliferation assays such as SRB and Alamar Blue) against the cell line in which the specific gene is either deleted or suppressed by siRNA at a single dose of 10 μM (Toxicity Screening).
Compounds that show more than 50% cell growth inhibition at this concentration are selected to test against both isogenic cell lines (loss-of-function vs. wild type) at three different concentrations (10, 2 and 0.4 μM, Synthetic lethal Screening). Compounds that show a selectivity index ≧5 are selected for next round of screening—Selectivity Screening.
In the Selectivity Screening, compounds are tested against cancer cell lines with a specific loss-of-function mutation and normal cells (HPDE6 and FORF-TERT). Depending on their approximate potency assessed in the Synthetic lethal Screening, compounds are tested in a range of concentrations (8 concentrations per agent) in Selectivity Screening. Compounds that have nM IC50 values in loss-of-function cells and selectivity index values >10 are selected for phenotypic consequence tests and in vivo evaluations in animal models.
The inhibition of cell proliferation by library compounds was evaluated using the CellTiter 96 Non-Radioactive Cell Proliferation Assay following the protocol recommended by the manufacturer (Promega, Madison Wis.). […]

In assay [5] the test system is BxPC-3 cells. The assay can be described thus: Annexin V-FITC apoptosis assay. The assay is classed as cell-based, human. Particulars: BxPC-3, 25 μM, 24 hours; untreated control 4.6%. As for the experimental part:
Cells were grown and treated with UA62001 as described in the cell cycle distribution analysis section above. Twenty-four hours after the treatment with the compound, cell media containing detached floating cells were transferred to 15 ml conical tubes; while the attached cells were trypsinized and collected in the same tube. Cells were then pelleted by centrifugation at 1500 rpm for 5 min, washed with PBS and then resuspended in 1×binding buffer at a concentration of 1×10^6 cells/ml. One hundred microliters (1×10^5 cells) were incubated with 5 μl of Annexin V-FITC (BD Pharmingen) and propidium iodide for 15 min in the dark at room temperature. After adding 400 μl of the 1× binding buffer, the cells were analyzed by flow cytometry (BD Immunocytometry systems). Data were acquired and analyzed using CellQuest software.

Assay [6] concerns IMR-90. The assay can be described thus: MTS cell proliferation assay, IMR-90 normal fibroblasts. The class given is cell-based, human. Particulars: IMR-90, even at 200 μM. The protocol:
as §1, §2

What is called IC50 is the concentration at which inhibition is half-maximal. A lower IC50 goes with greater potency in that assay. On to `O=C1c2ccccc2C(=O)c2c1ccc1c(=O)n(-c3ccccc3)[nH]c21` [UA62001, 2-phenyl-1H-Naphth [2,3-g]indazole-3,6,11(2H)-trione], for which the IC50 in assay [1] worked out at 3.1 µM; in assay [2] it was 3.2 ± 0.45 µM; in assay [2] (Homo sapiens, 96 h) it was 3 µM; in assay [4], 6 µM. Besides, the “cell population in S phase” value is recorded as 55.6% in assay [3] (24 hours, control 33.6%); 59.5% in assay [3] (48 hours, control 28.6%); 57.4% in assay [3] (72 hours, control 17.0%). In assay [3] (untreated control ~10%), the G2/M phase population is about 20%. Also, the “percentage of cells in the M1 region (Annexin V staining)” value in assay [5] was 8.2%. For the same molecule, the growth inhibition result in assay [6] is “little growth inhibition”.
